Data: US8580556B2, “Sulfonylurea-responsive repressor proteins” (E. I. du Pont de Nemours and Company, priority 2008, dated 2013)

Tests used:
[1] = pH 7; cited from earlier work
tet operator (tetO) = assay: Electrophoretic gel mobility shift assay (EMSA), tet operator binding; settings: ethametsulfuron repressor protein (L7A11) with TetO DNA; FIG. 7
[2] = system: tetA promoter (PtetA)-lacZ reporter in E. coli KM3; assay type: cell-based; settings: L1 hits; 20 μg/ml
[3] = system: tobacco BY-2 cell culture; assay: Tobacco BY-2 cell culture (dMMV-HRA) sulfonylurea resistance; assay type: cell-based, N. tabacum; settings: 200 ppb chlorsulfuron
Text: In addition to the leaf assay it was desired to have an in planta assay to enable high throughput screening of SuR libraries for optimal plant functionality. We designed a system similar to the leaf assay but using tobacco BY-2 cell culture in 96-well format. BY-2 cell culture was transformed with a dMMV-HRA construct such that the culture would withstand treatment with target sulfonylurea test compounds.

| Structure (SMILES) | logP [1] | release of repressor from operator sequence by inducer (tet operator (tetO)) | activator potency compared with the starting ligand Harmony® [2] | growth of dMMV-HRA transformed BY-2 cell line [3] |
| --- | --- | --- | --- | --- |
| COC(=O)c1sccc1S(=O)(=O)NC(=O)Nc1nc(C)nc(OC)n1 [Harmony®, thifensulfuron-methyl] | ~0.02 |  |  |  |
| Cc1c2c(c(O)c3c(O)cccc13)C(=O)[C@]1(O)C(=O)C(C(N)=O)=C(O)[C@@H](N(C)C)[C@@H]1C2 [atc, anhydrotetracycline] |  | No change in operator release |  |  |
| CCOC(=O)c1ccccc1S(=O)(=O)NC(=O)Nc1nc(Cl)cc(OC)n1 [chlorimuron, Chlorimuron-ethyl, reference compound] |  |  | more potent activators |  |
| COc1nc(C)nc(NC(=O)NS(=O)(=O)c2ccccc2Cl)n1 [chlorsulfuron, 2 chloro N ((4 methoxy 6 methy 1,3,5 triazine 2 yl)aminocarbonyl)benzenesulfonamide, reference compound] |  |  | more potent activators | fully resistant |
| CCOc1nc(NC)nc(NC(=O)NS(=O)(=O)c2ccccc2C(=O)OC)n1 [ethametsulfuron, Ethametsulfuron-methyl, reference compound] |  | inducer preference for operator release | more potent activators |  |
